Positions count from the first letter of the chain named.
Columns and labels:
[1] = test system: Pulmonary artery smooth muscle cells (PASMC); assay: PASMC cellular metabolism (alamarBlue assay); format: cell-based, lamb; settings: SIN-1 500 μM 48 h
Procedure: This was determined via the alamarBlue assay (AbD Serotec, Oxford, UK). The assay is based on the reducing ability of metabolically active cells to convert the active reagent, resazurin, into a fluorescent and colorimetric indicator, resorufin. When added to cell cultures, the oxidized, resazurin enters the cytosol and is converted to the reduced, resorufin in the mitochondria by accepting electrons from NADH, NADPH, FADH2, FMNH2, as well as from the cytochromes. The non-toxic and cell permeable nature of alamarBlue permits the long-term exposure of cells. PASMC were grown on a 10 cm dish to 75% confluence, transfected with WT-PKG-1α or Y247F-PKG-1α cDNA, and incubated at 37° C. for 20 h. The cells were trypsinized and seeded onto a 24-well plate at a density of 20,000 cells per well and grown for an additional 4 h in serum and phenol free DMEM growth medium containing 1% FBS and antibiotics. The cells were then treated with or without SIN-1 (500 μM, 48 h) in the presence of 10% well volume of alamarBlue dye. The color change of the dye was determined at an excitation wavelength of 560 nm and an emission wavelength of 590 nm in a Fluoroskan Ascent plate reader. […] Cellular metabolism was expressed as follows: […]

[2] = molecular target: T1, PKG-1α (Homo sapiens, UniProt Q13976); assay: [3H]cGMP dissociation/exchange assay; format: binding; settings: SIN-1 500 μM 30 min
T1 construct: transfected with an expression plasmid containing a full length WT-PKG-1α cDNA; made in house; host or cells: HEK-293T (methods); the results paragraph b527 says PASMC
T1 sequence (Q13976 2-671): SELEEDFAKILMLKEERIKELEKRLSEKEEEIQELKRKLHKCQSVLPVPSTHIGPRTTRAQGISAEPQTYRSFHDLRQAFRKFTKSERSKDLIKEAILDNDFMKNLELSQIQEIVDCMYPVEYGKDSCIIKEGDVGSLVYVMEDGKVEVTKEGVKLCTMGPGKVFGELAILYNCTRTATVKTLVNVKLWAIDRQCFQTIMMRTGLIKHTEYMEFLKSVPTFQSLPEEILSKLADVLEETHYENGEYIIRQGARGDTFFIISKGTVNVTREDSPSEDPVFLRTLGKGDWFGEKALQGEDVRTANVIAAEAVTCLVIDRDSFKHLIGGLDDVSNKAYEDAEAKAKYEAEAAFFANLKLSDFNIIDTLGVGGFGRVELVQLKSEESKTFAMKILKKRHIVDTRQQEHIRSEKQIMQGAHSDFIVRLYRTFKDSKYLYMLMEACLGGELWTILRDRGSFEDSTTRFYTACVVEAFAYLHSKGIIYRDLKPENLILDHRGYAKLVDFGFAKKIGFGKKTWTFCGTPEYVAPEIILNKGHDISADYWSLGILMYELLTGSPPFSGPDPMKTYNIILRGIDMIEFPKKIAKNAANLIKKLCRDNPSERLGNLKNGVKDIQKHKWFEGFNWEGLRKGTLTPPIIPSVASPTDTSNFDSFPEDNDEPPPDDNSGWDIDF
Procedure: (§1) WT- and Y247F-PKG-1α were immunopurified, as described above then incubated for 60 min at room temperature with 3 ml of cGMP-binding assay mixture containing 3 μM [^3H]cGMP. This incubation time and dose has been previously experimentally determined to be adequate for the saturation of the cGMP-binding sites in PKG. After incubation, the samples were cooled to 4° C. and divided into 200 μl aliquots per tube. The addition of 100-fold excess unlabeled cGMP at time 0 sec (Bo) initiated the dissociation (exchange) of the bound [^3H]cGMP. The cGMP exchange in each tube was stopped at the appropriate time point by the addition of 2 ml of cold aqueous saturated (NH4)2SO4. The samples were filtered, washed, and the portion of bound [^3H]cGMP at any time point was determined, as described previously.

[3] = molecular target: T2, PKG-1α (Homo sapiens, UniProt Q13976, Y247F); assay: [3H]cGMP dissociation/exchange assay; format: binding; settings: SIN-1 500 μM 30 min
T2 sequence (Q13976 2-671 Y247F): T1 sequence (Q13976 2-671) with Y246F
Procedure: as §1

For “3-morpholinosydnonimine N-ethylcarbamide [SIN-1]”, the “Metabolism, WT-PKG-1α transfected PASMC” value [1] was “stimulated”, the “[3H]cGMP exchange/dissociation from WT-PKG-1α” value [2] was “enhanced” and the “[3H]cGMP exchange/dissociation from Y247F mutant” value [3] was “but not from the Y247F mutant”.
